Measured values: patent US20240164378A1, “SYNERGISTIC PLANT GROWTH STIMULANT COMPOSITIONS OF POTASSIUM MONO/DI-FORMATE WITH CARBOXYLIC ACIDS” (FERTIS INDIA PVT. LTD., priority 2021, published 2024)

How the values were obtained:
[1] = test system: paddy grains; test: Total phenol estimation in paddy grains; assay type: in vivo; settings: treatment applied with farmer practice (NPK)
[2] = test system: paddy grains; test: Total protein content in paddy grains; assay type: in vivo; settings: treatment applied with farmer practice (NPK)

| SMILES | Total phenol Conc ppm in paddy grains [1] | % of Protein (total protein content in paddy grains) [2] |
| --- | --- | --- |
| O=CO.O=C[O-].[K+] [Potassium diformate] | 19.97 ppm | 0.012% |
| CC1=CC(=O)CC(C)(C)[C@@]1(O)/C=C/C(C)=C\C(=O)O [Abscisic acid] | 18.78 ppm | 0.008% |
| C=C1C[C@]23C[C@@]1(O)CC[C@H]2[C@@]12C=C[C@H](O)[C@@](C)(C(=O)O1)[C@H]2[C@@H]3C(=O)O [Gibberellic acid] | 16.7 ppm | 0.008% |
| COc1ccc2[nH]cc(CCNC(C)=O)c2c1 [Melatonin] | 17.9 ppm | – |
| O=C[O-].[K+] [Potassium formate] | 19.88 ppm | 0.011% |
